The results in this text go back to patent US20040092401A1, “Novel alpha-sulfin and alpha-sulfonamino amide derivatives” (priority 2000, published 2004).

The structures appear in SMILES notation. Where two headings read alike, the source gives them in different places. A value given as a limit tells only on which side of the number the result lay.

The test system of series [1] is Phytophthora (late blight). Nature of the series: whole plant or invertebrate. The class given is in vivo. As to conditions: in Solanum lycopersicum, read-out: inhibit fungal infestation.
Series [2] has as its system Phytophthora (late blight). Nature of the series: whole plant or invertebrate. It is filed as in vivo. The following applies: in Solanum tuberosum, read-out: inhibit fungal infestation.
Another series deals with Plasmopara viticola. The following applies: read-out: inhibit fungal infestation.

Experimental for Plasmopara viticola: 5 week old grape seedlings cv. Gutedel are treated with the formulated test compound in a spray chamber. One day after application grape plants are inoculated by spraying a sporangia suspension (4×104 sporangia/ml) on the lower leaf side of the test plants. After an incubation period of 6 days at +21° C. and 95% r. h. in a greenhouse the disease incidence is assessed.

On to `CCS(=O)(=O)N[C@H](C(=O)NCCc1ccc(OCC#Cc2ccc(Cl)cc2)cc1)C(C)C` [Compound A1.1, (S)-2-Ethanesulfonylamino-N-(2-{4-[3-(4-chloro-phenyl)-propargyloxvy]-phenyl}-ethyl)-3-methyl-butyramide], for which the inhibition at 200 ppm (in series [1]; in series [2]; with Plasmopara viticola) was no less than 80% in each case.

As for `CCS(=O)(=O)N[C@H](C(=O)NCCc1ccc(OCc2ccccc2)cc1)C(C)C`, the melting point is 133 to 134 °C.
